Assay results reported in ChEMBL document CHEMBL1157412, “Cytotoxic alkaloids and antibiotic nordammarane triterpenoids from the marine-derived fungus Aspergillus sydowi” (J Nat Prod, 2008).
Values after ≈ are worked out from the molar mass of the structure shown.

Legend:
A549 = assay: Cytotoxicity against human A549 cells after 72 hrs by MTT assay; format: functional, cell-based; conditions: A549, 72 h
HL-60 = assay: Cytotoxicity against human HL60 cells after 72 hrs by MTT assay; format: functional, cell-based; conditions: HL-60, 72 h
Micrococcus luteus = assay: Antimicrobial activity against Micrococcus lysodeikticus after 24 hrs by disk diffusion method; format: functional
Escherichia coli = assay: Antimicrobial activity against Escherichia coli after 24 hrs by disk diffusion method; format: functional
Bacillus subtilis = assay: Antimicrobial activity against Bacillus subtilis after 24 hrs by disk diffusion method; format: functional

MIC (Micrococcus luteus) [µM] | MIC (Escherichia coli) [µM] | MIC (Bacillus subtilis) [µM] | SMILES | IC50 (A549) [µM] | IC50 (HL-60) [µM]
 |  |  | COc1ccc2c(c1)NC(=O)[C@@]21C=C2C(=O)N3CCC[C@H]3C(=O)N2[C@H]1C=C(C)C [SPIROTRYPROSTATIN B] | 8.29 | 9.71
11 (≈ 6.25 µg/mL) | 87.9 (≈ 50 µg/mL) | 22 (≈ 12.5 µg/mL) | CC(=O)O[C@H]1C[C@@]2(C)[C@@H](CC[C@H]3[C@@]4(C)C=CC(=O)[C@@H](C)[C@@H]4[C@H](OC(C)=O)C(=O)[C@@]32C)/C1=C(\CCC=C(C)C)C(=O)O [HELVOLIC ACID] |  | 
10.7 (≈ 6.25 µg/mL) | 10.7 (≈ 6.25 µg/mL) | 5.33 (≈ 3.13 µg/mL) | CC(=O)O[C@H]1C[C@@]2(C)[C@@H](CC[C@H]3[C@@]4(C)C=CC(=O)[C@@H](C)[C@@H]4[C@H](OC(C)=O)C(=O)[C@@]32C)/C1=C(\CCCC(C)(C)O)C(=O)O |  | 
 |  |  | CC(C)=CCc1cccc2c(C[C@H]3C(=O)N[C@@H](C)C(=O)N3O)c[nH]c12 | 7.31 | 
7.49 (≈ 3.13 µg/mL) | 3.74 (≈ 1.56 µg/mL) | 15 (≈ 6.25 µg/mL) | C/C=C\[C@H](O)[C@H](O)C1=C(C)C(=O)[C@]2(O1)C(=O)N[C@@](OC)(C(=O)c1ccccc1)[C@@H]2O [14-NORPSEUROTIN A] |  | 
7.42 (≈ 3.2 µg/mL) | 14.5 (≈ 6.25 µg/mL) | 14.5 (≈ 6.25 µg/mL) | CC/C=C\[C@H](O)[C@H](O)C1=C(C)C(=O)[C@]2(O1)C(=O)N[C@@](OC)(C(=O)c1ccccc1)[C@@H]2O [PSEUROTIN A] |  | 
 |  |  | COc1ccc2c(C[C@@H]3NC(=O)[C@@H]4CCCN4C3=O)c(C(=O)C=C(C)C)[nH]c2c1 [18-OXOTRYPROSTATIN A] | 1.28 | 
